Converted amounts (≈) assume the structure as drawn. “And” between values parts separate entries of the source, which are not always exact repeats. Equal values may be shown once. Read-outs that look alike come from different tables or passages of the source.
Tests used:
MRSA (NCIM 5021) [1] = test: Minimum bactericidal concentration (MBC); assay type: cell-based, methicillin-resistant Staphylococcus aureus
Experimental: (§1) MBC can be defined as the minimum concentration of a compound required to kill the bacteria over a fixed period under precise conditions. […] Colonies were counted, and colony forming unit (CFU) per milliliter was calculated.

[2] = tested on: Staphylococcus epidermis (NCIM 2493); design: method as in Yele et al., 2020, 2021; settings: ref Yele et al., 2020, 2021; cited from earlier work
[3] = tested on: Pseudomonas aeruginosa (NCIM 2036); design: method as in Yele et al., 2020, 2021; settings: ref Yele et al., 2020, 2021; cited from earlier work
[4] = In vitro cytotoxicity MTT assay; settings: African green monkey, Vero cells
[5] = tested on: Escherichia coli (NCIM 2567); design: method as in Yele et al., 2020, 2021; settings: ref Yele et al., 2020, 2021; cited from earlier work
[6] = tested on: Staphylococcus aureus (NCIM 5022); design: method as in Yele et al., 2020, 2021; settings: ref Yele et al., 2020, 2021; cited from earlier work
E. coli ParE enzyme = molecular target: T1, E. coli ParE enzyme (Escherichia coli, UniProt P20083); test: E. coli ParE ATPase enzyme inhibition assay (ProFoldin kit, malachite green); assay type: biochemical; settings: ATPase activity, mean ± SD (n = 3); for IC50: read-out: IC50 against E. coli ParE enzyme (converted)
T1 construct: purchased ProFoldin, Hudson, United States
T1 sequence (P20083 whole entry): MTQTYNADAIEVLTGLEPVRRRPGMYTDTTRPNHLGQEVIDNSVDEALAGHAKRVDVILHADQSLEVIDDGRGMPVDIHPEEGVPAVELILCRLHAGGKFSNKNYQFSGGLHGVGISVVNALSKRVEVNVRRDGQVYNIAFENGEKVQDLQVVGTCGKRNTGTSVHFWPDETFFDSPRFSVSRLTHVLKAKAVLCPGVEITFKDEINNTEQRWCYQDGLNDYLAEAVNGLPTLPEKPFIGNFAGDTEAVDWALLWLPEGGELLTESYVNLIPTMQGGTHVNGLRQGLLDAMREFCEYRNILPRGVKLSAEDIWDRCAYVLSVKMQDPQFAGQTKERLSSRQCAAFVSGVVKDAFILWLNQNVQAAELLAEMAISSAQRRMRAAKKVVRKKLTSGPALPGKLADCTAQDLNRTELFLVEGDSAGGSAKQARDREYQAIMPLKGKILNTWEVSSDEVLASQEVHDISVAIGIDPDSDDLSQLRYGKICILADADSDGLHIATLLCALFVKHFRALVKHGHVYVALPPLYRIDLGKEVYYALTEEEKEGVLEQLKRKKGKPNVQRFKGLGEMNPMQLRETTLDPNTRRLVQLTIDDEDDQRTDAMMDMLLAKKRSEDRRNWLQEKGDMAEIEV
T1 sequence (P0AFI2 whole entry, further chain): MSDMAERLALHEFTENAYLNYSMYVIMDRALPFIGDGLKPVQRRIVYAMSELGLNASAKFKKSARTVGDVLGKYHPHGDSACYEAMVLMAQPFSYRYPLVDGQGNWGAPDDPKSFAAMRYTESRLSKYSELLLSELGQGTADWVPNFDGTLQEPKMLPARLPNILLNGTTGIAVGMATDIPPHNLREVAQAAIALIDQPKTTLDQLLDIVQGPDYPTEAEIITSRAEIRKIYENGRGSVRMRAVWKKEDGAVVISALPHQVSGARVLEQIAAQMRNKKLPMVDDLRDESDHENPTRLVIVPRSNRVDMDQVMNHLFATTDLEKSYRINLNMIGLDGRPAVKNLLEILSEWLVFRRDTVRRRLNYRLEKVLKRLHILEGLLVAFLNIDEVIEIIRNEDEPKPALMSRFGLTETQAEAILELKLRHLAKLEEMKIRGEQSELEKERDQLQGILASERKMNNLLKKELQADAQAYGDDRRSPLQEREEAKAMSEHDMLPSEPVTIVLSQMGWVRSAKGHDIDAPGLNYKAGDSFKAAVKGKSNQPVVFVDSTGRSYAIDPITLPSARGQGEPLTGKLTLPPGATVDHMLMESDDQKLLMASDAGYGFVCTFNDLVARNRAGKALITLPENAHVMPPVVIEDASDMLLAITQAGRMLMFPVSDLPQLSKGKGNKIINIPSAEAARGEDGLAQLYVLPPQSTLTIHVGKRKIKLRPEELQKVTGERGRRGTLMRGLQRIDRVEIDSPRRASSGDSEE
Summary of the method: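 E. coli ParE ATPase activity measured as inorganic phosphate released from ATP hydrolysis in the presence of DNA. Reaction ran 1 h at 37°C, quenched with malachite green dye, absorbance read at 650 nm after 5 min. IC50 from non-linear regression against no-enzyme and no-compound controls.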

[7] = tested on: Mycobacterium tuberculosis (NCIM 2984); design: method as in Yele et al., 2020, 2021; settings: ref Yele et al., 2020, 2021; cited from earlier work
[8] = tested on: Escherichia coli (NCIM 2065); test: Minimum bactericidal concentration (MBC); assay type: cell-based; settings: E. Coli (NCIM 2065); for MBC/MIC: ratio ≤2 bactericidal, ≥4 tolerance
Experimental: as §1

[9] = tested on: Klebsiella pneumonia (NCIM 2706); design: method as in Yele et al., 2020, 2021; settings: ref Yele et al., 2020, 2021; cited from earlier work
[10] = tested on: Bacillus subtilis (NCIM 2545); design: method as in Yele et al., 2020, 2021; settings: ref Yele et al., 2020, 2021; cited from earlier work
[11] = tested on: Escherichia coli (NCIM 2065); test: Antibacterial susceptibility test, microbroth dilution MIC; assay type: cell-based; settings: E. Coli (NCIM 2065), mean ± SD; for MIC: Escherichia coli, NCIM2065, read-out: Minimum inhibitory concentration
MRSA (ATCC43300) [12] = test: as above; assay type: cell-based, methicillin-resistant Staphylococcus aureus; settings: mean ± SD; for MIC: Staphylococcus aureus, read-out: Minimum inhibitory concentration
MRSA (NCIM 5021) [13] = test: as above; assay type: cell-based, methicillin-resistant Staphylococcus aureus; settings: mean ± SD; for MIC: Staphylococcus aureus, read-out: Minimum inhibitory concentration
MRSA (ATCC43300) [14] = test: Minimum bactericidal concentration (MBC); assay type: cell-based, methicillin-resistant Staphylococcus aureus
Experimental: as §1

[15] = tested on: Salmonella typhi (NCIM 2501); design: method as in Yele et al., 2020, 2021; settings: ref Yele et al., 2020, 2021; cited from earlier work
Vero cells [16] = tested on: Vero cells
E. coli [17] = test: Checkerboard synergy with FDA approved drugs; assay type: cell-based, Escherichia coli; settings: ciprofloxacin, gentamicin, rifampicin and doxycycline
E. coli [18] = test: Post antibiotic effect (PAE); assay type: cell-based, Escherichia coli; settings: for Time for 1 log10: untreated control 2 h
Vero cells [19] = test: In vitro cytotoxicity MTT assay; settings: CC50 Vero cells / IC50
E. coli [20] = test: Time-kill kinetics; assay type: cell-based, Escherichia coli; settings: 0.5× and 1.0× MIC, 0-24 h
Experimental: Bactericidal activity was evaluated for the compounds by the time-kill kinetics. […] 50 μL aliquot of the culture was inoculated at regular time intervals of 0, 2, 4, 8, 16, and 24 h onto the solidified agar plates, followed by incubation at 37°C for 24 h. Ciprofloxacin is used as a reference throughout the study. CFU was calculated by the colonies formed on the agar plate at each time interval. Time-kill curves were plotted using the CFU/mL of surviving bacteria at each time point in the absence or presence of the compound ([Tsuji et al., 2008]).

[21] = Staphylococcus aureus, read-out: MBC
[22] = Escherichia coli, NCIM2065, read-out: MBC

SMILES | MBC/MIC (MRSA (NCIM 5021) [1]) | MBC (MRSA (NCIM 5021) [1]; [21]) [µg/mL] | Minimum inhibitory concentration (MIC) S. e [2] | Minimum inhibitory concentration (MIC) P. a [3] | CC50 at 48 h [4] [µg/mL] | Minimum inhibitory concentration (MIC) E. c [5] | Minimum inhibitory concentration (MIC) S. a [6] | IC50 (E. coli ParE enzyme) [nM] | Minimum inhibitory concentration (MIC) M. t [7] | MBC/MIC [8] | MBC [8, 22] [µg/mL] | Minimum inhibitory concentration (MIC) K. p [9] | Minimum inhibitory concentration (MIC) B. s [10] | Minimum inhibitory concentration [11] | MIC [11] [µg/mL] | MIC (MRSA (ATCC43300) [12]) [µg/mL] | MIC (MRSA (NCIM 5021) [13]) [µg/mL] | MBC/MIC (MRSA (ATCC43300) [14]) | Minimum inhibitory concentration (MRSA (NCIM 5021) [13]) [µg/mL] | also measured
O=C(CSc1nc2ccccc2s1)Nc1ccc(C(=O)O)cc1[N+](=O)[O-] [Compound 25] | 3 | 8.37 ± 0.17 (≈ 21.5 µM) | 0.79 | 2.60 | 194 (≈ 498 µM) | 3.86 | 0.85 | 719 | 5.17 | 3 | 7.09 ± 0.02 (≈ 18.2 µM) | 1.86 | 1.72 | 0.72 ± 0.05 µg/mL (≈ 1.85 µM) | 0.72 (≈ 1.85 µM) | 1.11 ± 0.12 (≈ 2.85 µM) | 0.86 ± 0.13 (≈ 2.21 µM) |  |  | 
O=C(CCl)Nc1ccccc1OCC(=O)Nc1ccc(C(=O)O)cc1[N+](=O)[O-] [Compound 8] | 1 | 0.63 ± 0.13 (≈ 1.55 µM) | 4.83 | 0.69 | 257 (≈ 630 µM) | 0.70 | 8.64 | 662 | 1.38 | 1 | 0.93 ± 0.03 (≈ 2.28 µM) | 0.72 | 7.80 |  | 0.93 ± 0.03 (≈ 2.28 µM) | 1.06 ± 0.12 (≈ 2.6 µM) | 0.66 (≈ 1.62 µM) | 2 | 0.66 ± 0.13 (≈ 1.62 µM) | MBC (MRSA (ATCC43300) [14]; [21]): 2.46 ± 0.12 µg/mL (≈ 6.03 µM); Minimum inhibitory concentration (MIC) S. t [15]: 0.72
O=C(COc1ccccc1NC(=O)CCl)Nc1ccc(C(=O)O)cc1Br [Compound 5] | 2 |  | 5.63 | 6.25 |  | 8.25 | 2.64 |  | 0.78 | 1 |  | 7.52 | 7.82 | 0.64 µg/mL and 0.64 ± 0.03 µg/mL |  |  |  | 1 | 0.72 ± 0.05 (≈ 1.63 µM) | MBC (MRSA (NCIM 5021) [1]): 1.54 ± 0.11 µg/mL (≈ 3.49 µM); MBC (MRSA (ATCC43300) [14]): 0.68 ± 0.08 µg/mL (≈ 1.54 µM); CC50 (Vero cells [16]): 61.7583 µg/mL (≈ 140 µM); Synergy with FDA-approved antibiotics (E. coli [17]): synergized; PAE = T - C (E. coli [18]; 1 × mic): 1 h; Time for 1 log10 (E. coli [18]; 1 × mic): 3 h; PAE = T - C (E. coli [18]; 10 × mic): ~2 h; Time for 1 log10 (E. coli [18]; 10 × mic): 4 h; SI (CC50/IC50) (Vero cells [19]): 176.4531; Time-kill kinetics result (E. coli [20]): bactericidal property; IC50 against E. coli ParE enzyme (E. coli ParE enzyme): 0.35 ± 0.03 µg/mL (≈ 0.792 µM); MBC [8]: 0.64 ± 0.42 µg/mL (≈ 1.45 µM); Minimum inhibitory concentration (MRSA (ATCC43300) [12]): 0.68 µg/mL and 0.68 ± 0.08 µg/mL
